We go through 4 compounds from US8492413B2, “Pharmaceutical combination of 5-fluorouracil and derivate of 1,4-dihydropyridine and its use in the treatment of cancer” (priority 2009, dated 2013).

Data set [1] has as its system human breast cancer cells MDA-MB-435s. Kind of data set: Cell viability of MDA-MB-435s cells, crystal violet staining assay, 72 h exposure. The class given is cell-based. The settings on record: for IC50: 72 h, read-out: IC50 (concentration causing 50% cell viability decrease), compound alone. Here is the method:
Cell viability was measured using modified crystal violet staining (CVS) assay as described in [[…] et al., 1985]. In brief, cells were fixed with 1% glutaraldehyde for 15 minutes, washed with water and stained with 0.05% crystal violet for 15 minutes at room temperature. After removal of residual crystal violet by washing with tap water the crystal violet stain was eluted with ethanol sodium citrate (1:1) buffer, and absorbance at 540 nm was measured using a microplate reader. The IC50 values, corresponding to concentrations of compounds that cause 50% cell viability decrease, were calculated for individual compounds and their combinations and are summarized in Table 1.

Data set [2] has as its system leukaemia P388, murine sarcoma 37 and Walker's carcinosarcome. The settings on record: cited from earlier work.

Counter-ions that a name gives are not always drawn. Like-named read-outs stand apart in the source and are kept apart here.

Turning to `O=c1[nH]cc(F)c(=O)[nH]1` [Example 5-FU, 5-Fluorouracil], in data set [1] (Homo sapiens, single agent, MDA-MB-435s), the IC50 was 30 µM.
For the compound `CCC1C(C(=O)OCC(=O)O)=C(C)NC(C)=C1C(=O)OCC(=O)O` [disodium salt of 4-ethyl-2,6-dimethyl-1,4-dihydropyridine-3,5-bis-carbonyloxyacetic acid], in data set [1] (Homo sapiens, MDA-MB-435S), the IC50 was more than 2100 µM.
Take `CC1=C(C(=O)OCC(=O)[O-])CC(C(=O)OCC(=O)[O-])=C(C)N1.[Na+].[Na+]` [Carbatone, Disodium salt of carboxylate-methyl ester of 2,6-dimethyl-1,4-dihydropyridine-3,5-dicarboxylic acid]: in data set [2] (against leukaemia P388, murine sarcoma 37 and Walker's carcinosarcome), the “Effect on cytostatic activity of cyclophosphane, 5-fluorouracil and arabisosyl cytosine” value is “potentiates the cytostatic activity”. The “Antitumour activity of the compound itself” value in data set [2] (alone) is reported as “exhibited no antitumour activity”. For the same compound, in data set [2] (mice), the “Effect on cyclophosphane toxicity” value is “decreasing the cyclophosphane toxicity”. Moreover, in data set [1] (combined treatment with 5-FU, MDA-MB-435s), the “Effect on the cytotoxic effect of 5-FU (in words)” value is on record as “synergistically potentiates the cytotoxic effect of 5-FU”. Moreover, the IC50 in data set [1] (single agent, MDA-MB-435s) is 1320 µM.
With `CC1=C(C(=O)OCC(=O)O)C(C)C(C(=O)OCC(=O)O)=C(C)N1` [disodium salt of 2,4,6-trimethyl-1,4-dihydropyridine-3,5-bis-carbonyloxyacetic acid], in data set [1] (Homo sapiens, MDA-MB-435S), the IC50 was more than 2690 µM.
